# According to patent US10556865B2, “Synergistic herbicidal composition containing certain pyridine or pyrimidine carboxylic acids and certain cereal and rice herbicides” (Dow AgroSciences, LLC, priority 2007, dated 2020):
# “And” between values parts separate entries of the source, which are not always exact repeats. Equal values may be shown once.
# Key:
# Format in all cases: in vivo
# [1] = system: blackgrass (Alopecurus myosuroides L; ALOMY); experiment: Postemergence herbicidal activity of mixtures in cereal crops (greenhouse, visual injury 0-100 percent after 20-22 days); conditions: 15 g/ha, Table 1
# Procedure, shortened: (§1)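 Plants at second-third true leaf stage sprayed postemergence at 187 L/ha with compound and second cereal herbicide alone and combined; solvent blank controls. Visual injury scored 0-100% versus controls after 20-22 days; expected mixture effects by Colby's equation.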
# [2] = system: annual ryegrass (Lolium multiflorum L; LOLMG); experiment: Postemergence herbicidal activity of mixtures in cereal crops (greenhouse, visual injury); conditions: 15 g/ha, Table 1
# Procedure, shortened: as §1
# [3] = system: wild oats (Avena fatua L; AVEFA); experiment: as above; conditions: 15 g/ha, Table 1
# Procedure, shortened: as §1
# [4] = system: windgrass (Apera spica-venti L; APESV); experiment: as above; conditions: Apera spica-venti, post-emergence, 15 g/ha, Table 1; read-out: APESV Ob
# Procedure, shortened: as §1
# [5] = system: chickweed (Stellaria media L; STEME); experiment: as above; conditions: Stellaria media, post-emergence, 15 g/ha; read-out: STEME Ob
# Procedure, shortened: (§2)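 Visual injury, 0 = none to 100 = complete kill, rated 20–22 d after treatment versus solvent-sprayed controls. Applications were track-sprayer postemergence at 187 L/ha, at the 2nd–3rd true leaf stage, of Compound A or B esters/salts alone and in two- and three-way mixes with a second cereal herbicide. Expected mixture activity via Colby.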
# [6] = system: green foxtail (Setaria viridis L; SETVI); experiment: as above; conditions: 15 g/ha, Table 1
# Procedure, shortened: as §2
# [7] = system: kochia (Kochia scoparia L; KCHSC); experiment: as above
# Procedure, shortened: as §2
# [8] = system: lamb's-quarters (Chenopodium album L; CHEAL); experiment: as above; conditions: 15 g/ha
# Procedure, shortened: as §2
# [9] = system: wild mustard (Sinapis arvensis L; SINAR); experiment: as above
# Procedure, shortened: as §2
# [10] = system: bird's-eye speedwell (Veronica persica L; VERPE); experiment: as above
# Procedure, shortened: (§3)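 Weeds grown in greenhouse (~14 h photoperiod, ~18/17 °C day/night) to second–third true leaf stage, sprayed postemergence with compound and second cereal herbicide alone or combined; solvent-blank controls. Injury scored visually after 20-22 days, 0–100% (complete kill); expected mixture activity = A+B−(A×B/100).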
# [11] = system: scented mayweed (Matricaria chamomila L; MATCH); experiment: as above
# Procedure, shortened: as §3
# [12] = system: wild pansy (Viola tricolor L; VIOTR); experiment: as above
# Procedure, shortened: as §3
# [13] = system: Echinochloa species (ECHSS); experiment: Herbicidal mixtures for weed control in transplanted paddy rice (in-water application, visual % injury after 3 weeks); conditions: ECHCG
# Procedure: (§4) Weed seeds or nutlets of the desired test plant species were planted in puddled soil (mud) prepared by mixing a non-sterilized mineral soil (28 percent silt, 18 percent clay, and 54 percent sand, with a pH of about 7.3 to 7.8 and an organic matter content of about 1.0 percent) and water at a ratio of 100 kilograms (kg) of soil to 19 L of water. The prepared mud was dispensed in 250 mL aliquots into 480 mL non-perforated plastic pots with a surface area of 91.6 square centimeters leaving a headspace of 3 centimeters in each pot. Rice seeds were planted in Sun Gro MetroMix® 306 planting mixture, which typically has a pH of 6.0 to 6.8 and an organic matter content of about 30 percent, in plastic plug trays. Seedlings at the second or third leaf stage of growth were transplanted into 650 mL of mud contained in 960 mL non-perforated plastic pots with a surface area of 91.6 cm^2 4 days prior to herbicide application. The paddy was created by filling the 3 centimeter headspace of the pots with water. When required to ensure good germination and healthy plants, a fungicide treatment and/or other chemical or physical treatment was applied. The plants were grown for 4-14 days in a greenhouse with an approximate 14 hr photoperiod which was maintained at about 29° C. during the day and 26° C. during the night. Nutrients were added as Osmocote (17:6:10, N:P:K+minor nutrients) at 2 g per cup. Water was added on a regular basis to maintain the paddy flood, and supplemental lighting was provided with overhead metal halide 1000-Watt lamps as necessary. The plants were employed for testing when they reached the second or third true leaf stage.
# (§5) Treatments consisted of esters or salts of compound A, compound C, or compound D and various herbicidal components alone and in combination. For technical grade compounds, a weighed amount, determined by the highest rate to be tested, was placed in an individual 120 mL glass vial and was dissolved in 20 mL of acetone to obtain concentrated stock solutions. […] The concentrated stock solutions obtained were diluted with 20 mL of an aqueous mixture containing 2.5% Agri-dex crop oil concentrate (v/v). For formulated compounds, a measured amount, determined by the highest rate to be tested, was placed in an individual 120 mL glass vial and was dissolved in 20 mL of 2.5% (v/v) Agri-dex crop oil concentrate to obtain concentrated stock solutions. The concentrated stock solutions obtained were diluted with 20 mL of acetone. Applications were made by injecting an appropriate amount of the stock solution into the aqueous layer of the paddy. Control plants were treated in the same manner with the solvent blank. All treated plant material received the same concentration of acetone and crop oil concentrate.
# (§6) Forms of compounds A, C, and D were applied on an acid equivalent basis. Other herbicidal components were applied on an active ingredient basis and included acetolactate synthase (ALS)-inhibiting herbicides penoxsulam (triazolopyrimidine chemical class) applied as Grasp SC, […] (sulfonylurea chemical class) applied as Sirius G, and bensulfuron-methyl (sulfonylurea chemical class) applied as Londax; acetyl CoA carboxylase (ACCase) inhibiting herbicides cyhalofop-butyl applied as Clincher G and fenoxaprop-p-ethyl applied as Ricestar HT; auxinic herbicide quinclorac applied as Facet 75 DF; phytoene desaturase inhibiting herbicide norflurazon; and p-hydroxyphenylpyruvate dioxygenase (HPPD) inhibiting herbicide sulcotrione applied as Mikado.
# (§7) The treated plants and control plants were placed in a greenhouse as described above and water was added as needed to maintain a paddy flood. After 3 weeks the condition of the test plants as compared with that of the untreated plants was determined visually and scored on a scale of 0 to 100 percent where 0 corresponds to no injury and 100 corresponds to complete kill.
# Cyperus species (CYPSS) = experiment: Herbicidal mixtures for weed control in transplanted paddy rice (in-water application, visual % injury)
# Procedure: as §4, §5, §6, §7
# [14] = system: Eleocharis kuroguwai OHWI (ELOKU); experiment: as above
# Procedure: as §4, §5, §6, §7
# [15] = system: Leptochloa chinensis (L.) NEES (LEFCH); experiment: as above
# Procedure: as §4, §5, §6, §7
# [16] = system: Scirpus maritimus L. (SCPMA); experiment: as above
# Procedure: as §4, §5, §6, §7
# [17] = system: Sphenoclea zeylanica GAERTN. (SPDZE); experiment: as above
# Procedure: as §4, §5, §6, §7
# [18] = system: Fimbristylis miliacea (L.) VAHL (FIMMI); experiment: as above
# Procedure: as §4, with “When required to ensure good germination and healthy plants, a fungicide treatment and/or other chemical or physical treatment was applied.” left out
# as §5, §6, §7
# [19] = system: Ipomoea hederacea (L.) JACQ. (IPOHE); experiment: Postemergence herbicidal mixtures for weed control in direct seeded rice (greenhouse, visual % injury after 3 weeks)
# [20] = system: Polygonum pensylvanicum L. (POLPY); experiment: Postemergence herbicidal mixtures for weed control in direct seeded rice (greenhouse, visual % injury)
# [21] = system: Cyperus esculentus L. (CYPES); experiment: as above
# Cyperus iria L. (CYPIR) = experiment: as above
# Scirpus species (SCPSS) = experiment: Herbicidal mixtures for weed control in transplanted paddy rice (in-water application, visual % injury); conditions: SCPJU; 90 g/ha alone
# Procedure: as §4, with “When required to ensure good germination and healthy plants, a fungicide treatment and/or other chemical or physical treatment was applied.” left out
# as §5, §6, §7
# [22] = system: Digitaria sanguinalis (L.) SCOP. (DIGSA); experiment: Postemergence herbicidal mixtures for weed control in direct seeded rice (greenhouse, visual % injury)
# [23] = system: Russian thistle (Salsola iberica L; SASKR); experiment: Postemergence herbicidal activity of mixtures in cereal crops (greenhouse, visual injury)
# Procedure, shortened: as §2
# [24] = system: Leptochloa chinensis (L.) NEES (LEFCH); experiment: Postemergence herbicidal mixtures for weed control in direct seeded rice (greenhouse, visual % injury); conditions: LEFCH; 70 g/ha alone
# [25] = system: ivy-leaved speedwell (Veronica hederifolia L; VERHE); experiment: Postemergence herbicidal activity of mixtures in cereal crops (greenhouse, visual injury); conditions: 12.5 g/ha
# Procedure, shortened: as §2
smiles,measurement,setting,value
"O=C(Nc1ccc(F)cc1F)c1cccnc1Oc1cccc(C(F)(F)F)c1 [Diflufenican, N-(2,4-difluorophenyl)-2-[3-(trifluoromethyl)phenoxy]-3-pyridinecarboxamide, reference compound]",ALOMY Ob,[1],0%
same,LOLMG Ob,[2],0%
same,AVEFA Ob,[3],0%
same,pest or weed control at 15 g/ha,[4],0%
same,pest or weed control at 15 g/ha,[5],3%
same,SETVI Ob,[6],0%
same,KCHSC Ob,[7]; 12.5 g/ha alone,12%
same,CHEAL Ob,[8],0%
same,SINAR Ob,[9]; 15 g/ha,0%
same,pest or weed control at 12.5 g/ha,"[10]; Veronica persica, post-emergence, 12.5 g/ha alone, read-out: VERPE Ob",7%
same,pest or weed control at 15 g/ha,"[10]; Veronica persica, post-emergence, 15 g/ha, read-out: VERPE Ob",38%
same,pest or weed control at 12.5 g/ha,"[11]; Matricaria, post-emergence, 12.5 g/ha alone, read-out: MATCH Ob",7%
same,pest or weed control at 15 g/ha,"[11]; Matricaria, post-emergence, 15 g/ha, read-out: MATCH Ob",5%
same,pest or weed control at 12.5 g/ha,"[12]; Viola tricolor, post-emergence, 12.5 g/ha alone, read-out: VIOTR Ob",35%
same,pest or weed control at 15 g/ha,"[12]; Viola tricolor, post-emergence, 15 g/ha, read-out: VIOTR Ob",15%
CCN(CC)CC.COc1c(Cl)ccc(-c2cc(N)c(Cl)c(C(=O)O)n2)c1Cl [Compound C TEA],% Injury Ob,[13]; 35 g/ha alone,0%
same,% Injury Ob,[13]; 70 g/ha alone,25%
same,% Injury Ob,"Cyperus species (CYPSS); CYPES, 35 g/ha alone",0%
same,% Injury Ob,"Cyperus species (CYPSS); CYPES, 70 g/ha alone",40%
same,% Injury Ob,"Cyperus species (CYPSS); CYPIR, 35 g/ha alone",20%
same,% Injury Ob,"Cyperus species (CYPSS); CYPIR, 70 g/ha alone",60%
same,% Injury Ob,[14]; 35 g/ha alone,0%
same,% Injury Obs,[14]; 35 g/ha alone,0%
same,% Injury Ob,[14]; 70 g/ha alone,50%
same,% Injury Obs,[14]; 70 g/ha alone,50%
same,% Injury Ob,[15]; 35 g/ha alone,50%
same,% Injury Ob,[15]; 70 g/ha alone,95%
same,% Injury Ob,[16]; 35 g/ha alone,0%
same,% Injury Ob,[16]; 70 g/ha alone,0%
same,% Injury Ob,[17]; 35 g/ha alone,50%
same,% Injury Ob,[17]; 70 g/ha alone,80%
same,% Injury Ob,[18]; 35 g/ha alone,0%
same,% Injury Ob,[18]; 70 g/ha alone,0%
CCCCOC(=O)[C@@H](C)Oc1ccc(Oc2ccc(C#N)cc2F)cc1 [Cyhalofop-butyl],% Injury IPOHE Ob,[19]; alone 140 g/ha,0%
same,% Injury IPOHE Ob,[19]; alone 280 g/ha,0%
same,% Injury POLPY Ob,[20]; alone 100 g/ha,0%
same,% Injury CYPES Ob,[21]; alone 100 g/ha,0%
same,% Injury CYPES Ob,[21]; alone 200 g/ha,0%
same,% Injury CYPIR Ob,Cyperus iria L. (CYPIR); alone 140 g/ha,0%
same,% Injury CYPIR Ob,Cyperus iria L. (CYPIR); alone 280 g/ha,0%
same,% Injury Ob,[13]; 90 g/ha alone,50%
same,% Injury Ob,[13]; 180 g/ha alone,75% and 95%
same,% Injury Ob,"Cyperus species (CYPSS); CYPES, 90 g/ha alone",0%
same,% Injury Ob,"Cyperus species (CYPSS); CYPIR, 90 g/ha alone",0%
same,% Injury Ob,[15]; 90 g/ha alone,50%
same,% Injury Ob,[16]; 90 g/ha alone,0%
same,% Injury Ob,[17]; 90 g/ha alone,0%
same,% Injury Ob,[18]; 90 g/ha alone,0%
same,% Injury Ob,Scirpus species (SCPSS),0%
O=c1c(Cl)c[nH]c(Cl)c1Cl [Pyriclor],% Injury Ob,[22]; 140 g/ha alone,80%
O=C(O)CNCP(=O)(O)O [Glyphosate],SASKR Ob,[23]; 52.5 g/ha alone,0%
same,KCHSC Ob,[7]; 52.5 g/ha alone,0%
same,pest or weed control at 52.5 g/ha,"[12]; Viola tricolor, post-emergence, read-out: VIOTR Ob",52%
same,% Injury Ob,"[20]; POLPY, 70 g/ha alone",0%
same,% Injury Ob,[24],20%
same,% Injury Ob,[22]; 70 g/ha alone,0%
O=C(Nc1ccc(F)cc1)c1cccc(Oc2cccc(C(F)(F)F)c2)n1 [Picolinafen],SASKR Ob,[23]; 15 g/ha alone,60%
same,VERHE Ob,[25],5%
same,KCHSC Ob,[7]; 12.5 g/ha,5%
same,SINAR Ob,[9]; 12.5 g/ha,5%
same,VERPE Ob,[10]; 12.5 g/ha,0%
same,VERPE Ob,[10]; 15 g/ha alone,43%
same,MATCH Ob,[11]; 15 g/ha alone,10%
same,VIOTR Ob,[12]; 12.5 g/ha,0%
same,VIOTR Ob,[12]; 15 g/ha alone,78%
